Results on two compounds are retold here after US20020081596A1, “Compositions and methods for the identification, assessment, prevention, and therapy of human cancers” (priority 2000, published 2002).

One test deals with MDA-MB-435. The following applies: MDA-MB-435, breast, TAXOL sensitive cell line; cited from earlier work.
The next test deals with SN12C. The following applies: renal, TAXOL sensitive cell line; cited from earlier work.
For the next test, the system named is MCF-7. Conditions: MCF-7, breast, TAXOL sensitive cell line; cited from earlier work.
A further test concerns NCl-H522. Conditions: NCl-H522, non-small cell lung carcinoma, TAXOL sensitive cell line; cited from earlier work.
For the next test, the system named is SK-MEL-2. The following applies: SK-MEL-2, melanoma, TAXOL sensitive cell line; cited from earlier work.
The subject of the next test is HCT-15. Conditions: HCT-15, colon, TAXOL resistant cell line; cited from earlier work.
The subject of test [1] is TAXOL sensitive cancer cell lines. As to the kind of experiment: Growth inhibition (GI50) by TAXOL, mean of nine sensitive cell lines. The class given is cell-based, human. Conditions: mean of the nine TAXOL sensitive cell lines of Table C. As to the method: (§1) One group of nine cell lines was determined to be sensitive to TAXOL (Table C), the other group of nine cell lines was determined to be resistant to TAXOL (Table B). Sensitivity to TAXOL was based of known GI50 values for these cells, which for this study was defined as the concentration of TAXOL required to inhibit growth of the cell line by 50%. More precisely, the quantity used in the calculation is the potency measure −log{GI50}. Pooled RNA from TAXOL sensitive cancer cell lines was used as tester against driver RNA pooled from TAXOL resistant cancer cell lines. Pooled RNA from TAXOL resistant cancer cell lines was used as tester against driver RNA pooled from TAXOL sensitive cancer cell lines.

The next test deals with ACHN. The following applies: renal, TAXOL resistant cell line; cited from earlier work.
For a further test, the system named is OVCAR-3. The following applies: OVCAR-3, ovarian, TAXOL sensitive cell line; cited from earlier work.
Another test concerns SK-MEL-5. Conditions: SK-MEL-5, melanoma, TAXOL sensitive cell line; cited from earlier work.
The next test deals with T-47D. The following applies: breast, TAXOL resistant cell line; cited from earlier work.
Test [2] deals with TAXOL resistant cancer cell lines. In words: Growth inhibition (GI50) by TAXOL, mean of nine resistant cell lines. The class given is cell-based, human. The following applies: mean of the nine TAXOL resistant cell lines of Table B. As for the experimental part:
as §1

A further test relates to MALME-3M. Conditions: melanoma, TAXOL resistant cell line; cited from earlier work.
The next test deals with MCF-7/AdrRes. The following applies: breast, TAXOL resistant cell line; cited from earlier work.
In a further test the test system is HOP-92. Conditions: HOP-92, non-small cell lung carcinoma, TAXOL resistant cell line; cited from earlier work.
Another test has as its system HT-29. Conditions: HT-29, colon, TAXOL sensitive cell line; cited from earlier work.
Another test deals with NCl-H460. Conditions: NCl-H460, non-small cell lung carcinoma, TAXOL sensitive cell line; cited from earlier work.
A further test has as its system OVCAR-4. The following applies: OVCAR-4, ovarian, TAXOL resistant cell line; cited from earlier work.
The next test has as its system EKVX. Conditions: non-small cell lung carcinoma, TAXOL resistant cell line; cited from earlier work.
Another test relates to SK-MEL-28. Conditions: SK-MEL-28, melanoma, TAXOL resistant cell line; cited from earlier work.
The next test concerns tumor. The following applies: animal models; cited from earlier work.

The structures appear in SMILES notation.

`CC(=O)O[C@H]1C(=O)[C@@]2(C)[C@H]([C@H](OC(=O)c3ccccc3)[C@]3(O)C[C@H](OC(=O)[C@H](O)[C@@H](NC(=O)c4ccccc4)c4ccccc4)C(C)=C1C3(C)C)[C@]1(OC(C)=O)CO[C@@H]1C[C@@H]2O` [TAXOL]: the “Log GI 50 for TAXOL” value is on record as −8.6 in the test on MDA-MB-435; −8.5 with SN12C; −8.5 in the test with MCF-7; −8.5 in the test with NCl-H522; −8.3 in the test with SK-MEL-2; −8.5 in the test on OVCAR-3. In addition, the “Log GI 50 for TAXOL” value is recorded as −8.4 in the test with SK-MEL-5, −8.6 with HT-29 and −8.5 in the test on NCl-H460. In addition, the “Log Gl 50 for TAXOL” value is listed as −6.7 in the test with HCT-15; −5.8 with ACHN; −6.9 with T-47D; −6.8 in the test on MALME-3M; −5.5 with MCF-7/AdrRes; −7.2 in the test on HOP-92. Further, the results for the “Log Gl 50 for TAXOL” value in the test on OVCAR-4, in the test on EKVX and in the test with SK-MEL-28 were −6.3, −6.6 and −7.1, respectively. Besides, the “Log GI 50 for TAXOL (Mean)” value in test [1] was −8.5. Further, in test [2], the “Log Gl 50 for TAXOL (Mean)” value is −6.5.

For the compound `CC(=O)O[C@@]12CO[C@@H]1C[C@H](O)[C@@]1(C)C(=O)[C@H](O)C3=C(C)[C@@H](OC(=O)[C@H](O)[C@@H](NC(=O)OC(C)(C)C)c4ccccc4)C[C@@](O)([C@@H](OC(=O)c4ccccc4)[C@H]21)C3(C)C` [Taxotere, docetaxel], the anti-tumor activity result in the test with tumor is given as “good anti-tumor activity”.
